Measurements: patent US6914045B2, “Glycopeptide antibiotics” (Wyeth Holdings Corporation, priority 2001, dated 2005)
≈ marks a conversion by molar mass, not a printed value.

Experiments:
Assay in all cases: in vitro antibacterial evaluation, MIC by broth dilution
Format in all cases: cell-based
[1] = test system: Escherichia coli; conditions: 18 hours at 35° C.
[2] = test system: Staphylococcus sp.; conditions: broth dilution, 18 hours at 35° C.
Procedure, shortened: (§1)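 MIC, the lowest antibiotic concentration preventing growth, was read across 64-0.06 μg/mL with 5×10^5 CFU/mL inoculum. Method followed NCCLS M7-A2 broth dilution using Mueller-Hinton II; Gram-positive strains covered recent methicillin-, penicillin- and/or vancomycin-resistant clinical isolates.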

[3] = test system: Enterococcus sp.; conditions: broth dilution, 18 hours at 35° C.
Procedure, shortened: as §1

[4] = test system: Streptococcus sp.; conditions: broth dilution, 18 hours at 35° C.
Procedure, shortened: as §1

## Cc1ccc(COCC2OC(OC3C(CO)OC(Oc4ccc(CC5NC(=O)C(C(C)c6ccccc6)NC(=O)CNC(=O)C(CO)NC(=O)C(C(O)C6CNC(=N)N6C6OC(CO)C(O)C(O)C6O)NC(=O)C(C(O)C6CNC(=N)N6)NC5=O)cc4)C(O)C3O)C(O)C(O)C2O)cc1 (stereo not shown) [Example 234]
[1]
  MIC Escherichia coli (ATCC 25922): 64 µg/mL (≈ 45.7 µM)
  MIC Escherichia coli (GC 4559): 64 µg/mL (≈ 45.7 µM)
  MIC Escherichia coli (GC 4560): 1 µg/mL (≈ 0.715 µM)
[2]
  MIC Coagulase Negative Staphylococcus (GC 4547): 1 µg/mL (≈ 0.715 µM)
  MIC Coagulase Negative Staphylococcus (GC 4548): 1 µg/mL (≈ 0.715 µM)
  MIC Coagulase Negative Staphylococcus (GC 4549): 0.5 µg/mL (≈ 0.357 µM)
  MIC Coagulase Negative Staphylococcus (GC 4551): 2 µg/mL (≈ 1.43 µM)
  MIC Coagulase Negative Staphylococcus (GC 6257): 1 µg/mL (≈ 0.715 µM)
  MIC Staphylococcus aureus (ATCC 29213): 2 µg/mL (≈ 1.43 µM)
  MIC Staphylococcus aureus (GC 1131): 2 µg/mL (≈ 1.43 µM)
  MIC Staphylococcus aureus (GC 3051): 2 µg/mL (≈ 1.43 µM)
  MIC Staphylococcus aureus (GC 3053): 2 µg/mL (≈ 1.43 µM)
  MIC Staphylococcus aureus (GC 4541): 2 µg/mL (≈ 1.43 µM)
  MIC Staphylococcus aureus (GC 4542): 2 µg/mL (≈ 1.43 µM)
  MIC Staphylococcus aureus (GC 4544): 2 µg/mL (≈ 1.43 µM)
  MIC Staphylococcus aureus (GC 4545): 2 µg/mL (≈ 1.43 µM)
  MIC Staphylococcus aureus-SMITH (GC 4543): 2 µg/mL (≈ 1.43 µM)
  MIC Staphylococcus haemolyticus (GC 4546): 1 µg/mL (≈ 0.715 µM)
[2]; strain ATCC 29213
  MIC Staphylococcus aureus (ATCC 29213): 2 µg/mL (≈ 1.43 µM)
[2]; strain GC 1131
  MIC Staphylococcus aureus (GC 1131): 2 µg/mL (≈ 1.43 µM)
[2]; strain GC 3051
  MIC Staphylococcus aureus (GC 3051): 2 µg/mL (≈ 1.43 µM)
[2]; strain GC 3053
  MIC Staphylococcus aureus (GC 3053): 2 µg/mL (≈ 1.43 µM)
[2]; strain GC 4541
  MIC Staphylococcus aureus (GC 4541): 2 µg/mL (≈ 1.43 µM)
[2]; strain GC 4542
  MIC Staphylococcus aureus (GC 4542): 2 µg/mL (≈ 1.43 µM)
[2]; strain GC 4543
  MIC Staphylococcus aureus-SMITH (GC 4543): 2 µg/mL (≈ 1.43 µM)
[2]; strain GC 4544
  MIC Staphylococcus aureus (GC 4544): 2 µg/mL (≈ 1.43 µM)
[2]; strain GC 4545
  MIC Staphylococcus aureus (GC 4545): 2 µg/mL (≈ 1.43 µM)
[2]; strain GC 4546
  MIC Staphylococcus haemolyticus (GC 4546): 1 µg/mL (≈ 0.715 µM)
[2]; strain GC 4547
  MIC Coagulase Negative Staphylococcus (GC 4547): 1 µg/mL (≈ 0.715 µM)
[2]; strain GC 4548
  MIC Coagulase Negative Staphylococcus (GC 4548): 1 µg/mL (≈ 0.715 µM)
[2]; strain GC 4549
  MIC Coagulase Negative Staphylococcus (GC 4549): 0.5 µg/mL (≈ 0.357 µM)
[2]; strain GC 4551
  MIC Coagulase Negative Staphylococcus (GC 4551): 2 µg/mL (≈ 1.43 µM)
[2]; strain GC 6257
  MIC Coagulase Negative Staphylococcus (GC 6257): 1 µg/mL (≈ 0.715 µM)
[3]
  MIC Enterococcus avium (GC 4558): 8 µg/mL (≈ 5.72 µM)
  MIC Enterococcus faecalis (ATCC 29212): 8 µg/mL (≈ 5.72 µM)
  MIC Enterococcus faecalis (GC 2242): 4 µg/mL (≈ 2.86 µM)
  MIC Enterococcus faecalis (GC 2691): 8 µg/mL (≈ 5.72 µM)
  MIC Enterococcus faecalis (GC 3059): 8 µg/mL (≈ 5.72 µM)
  MIC Enterococcus faecalis (GC 4552): 8 µg/mL (≈ 5.72 µM)
  MIC Enterococcus faecalis (GC 4553): 8 µg/mL (≈ 5.72 µM)
  MIC Enterococcus faecalis (GC 4554): 8 µg/mL (≈ 5.72 µM)
  MIC Enterococcus faecalis (GC 6189): 8 µg/mL (≈ 5.72 µM)
  MIC Enterococcus faecium (GC 2243): 8 µg/mL (≈ 5.72 µM)
  MIC Enterococcus faecium (GC 4556): 8 µg/mL (≈ 5.72 µM)
  MIC Enterococcus faecium (GC 4557): 2 µg/mL (≈ 1.43 µM)
[3]; strain ATCC 29212
  MIC Enterococcus faecalis (ATCC 29212): 8 µg/mL (≈ 5.72 µM)
[3]; strain GC 2243
  MIC Enterococcus faecium (GC 2243): 8 µg/mL (≈ 5.72 µM)
[3]; strain GC 4552
  MIC Enterococcus faecalis (GC 4552): 8 µg/mL (≈ 5.72 µM)
[3]; strain GC 4553
  MIC Enterococcus faecalis (GC 4553): 8 µg/mL (≈ 5.72 µM)
[3]; strain GC 4554
  MIC Enterococcus faecalis (GC 4554): 8 µg/mL (≈ 5.72 µM)
[3]; strain GC 4556
  MIC Enterococcus faecium (GC 4556): 8 µg/mL (≈ 5.72 µM)
[3]; strain GC 4557
  MIC Enterococcus faecium (GC 4557): 2 µg/mL (≈ 1.43 µM)
[3]; strain GC 4558
  MIC Enterococcus avium (GC 4558): 8 µg/mL (≈ 5.72 µM)
[3]; strain GC 6189
  MIC Enterococcus faecalis (GC 6189): 8 µg/mL (≈ 5.72 µM)
[3]; inoculum 5×10^5 CFU/mL, strain GC 2242
  MIC Enterococcus faecalis (GC 2242): 4 µg/mL (≈ 2.86 µM)
[3]; inoculum 5×10^5 CFU/mL, strain GC 2691
  MIC Enterococcus faecalis (GC 2691): 8 µg/mL (≈ 5.72 µM)
[3]; inoculum 5×10^5 CFU/mL, strain GC 3059
  MIC Enterococcus faecalis (GC 3059): 8 µg/mL (≈ 5.72 µM)
[4]
  MIC Streptococcus agalactiae (GC 4564): 0.5 µg/mL (≈ 0.357 µM)
  MIC Streptococcus pneumoniae (ATCC 6301): 0.25 µg/mL (≈ 0.179 µM)
  MIC Streptococcus pneumoniae (GC 1894): 0.12 µg/mL (≈ 0.0857 µM)
  MIC Streptococcus pneumoniae (GC 4565): 0.25 µg/mL (≈ 0.179 µM)
  MIC Streptococcus pyogenes (GC 4563): 0.5 µg/mL (≈ 0.357 µM)
[4]; inoculum 5×10^5 CFU/mL, strain ATCC 6301
  MIC Streptococcus pneumoniae (ATCC 6301): 0.25 µg/mL (≈ 0.179 µM)
[4]; inoculum 5×10^5 CFU/mL, strain GC 1894
  MIC Streptococcus pneumoniae (GC 1894): 0.12 µg/mL (≈ 0.0857 µM)
[4]; inoculum 5×10^5 CFU/mL, strain GC 4563
  MIC Streptococcus pyogenes (GC 4563): 0.5 µg/mL (≈ 0.357 µM)
[4]; inoculum 5×10^5 CFU/mL, strain GC 4564
  MIC Streptococcus agalactiae (GC 4564): 0.5 µg/mL (≈ 0.357 µM)
[4]; inoculum 5×10^5 CFU/mL, strain GC 4565
  MIC Streptococcus pneumoniae (GC 4565): 0.25 µg/mL (≈ 0.179 µM)
